Measurements from paper PMC4821887, “Identification of chemicals that mimic transcriptional changes associated with autism, brain aging and neurodegeneration” (Nature Communications, 2016).

System: mouse cortical cultures
Experiment: RNA-seq differential expression (DESeq) against matched vehicle
Assay type: cell-based
Experimental: Figure 4 Cluster 2 chemicals alter expression of a common set of genes. […] RNA-seq was performed in quadruplicate after treating cortical cultures with fenamidone (10 μM) or pyraclostrobin (0.1 μM) for 24 h (n=3 biological replicates) and compared with matched vehicle controls using DESeq to detect differentially expressed genes, listed in Supplementary Data 4.
Cultures were treated with the non-cytotoxic dose of each chemical, by exchanging half of the original medium with chemicals at 2 × concentration in prewarmed feeding medium, on DIV 7 for 24 h in 12-well plates at a density of 5 × 10^5 cells per well. RNA was isolated using RNeasy plus mini kit (Cat. #74134, Qiagen). […]. Samples were further assessed for quality using either an Agilent Bioanalyzer 2100 or TapeStation 2200 to obtain a RIN. RIN values exceeding 7 were used for sequencing. RNA samples were used to generate and barcode complementary DNA libraries using the TruSeq RNA Library Preparation Kit at the UNC High Throughput Sequencing Facility. Pools of 24 multiplexed samples were sequenced per lane on an Illumina HiSeq 2500 using 50-bp paired-end reads.
RNA-seq reads were filtered using TagDust and aligned to the reference mouse genome (mm9) with TopHat using default parameters. Reads aligning to ribosomal RNA genes were removed. Transcript abundance was estimated by computing Reads per kilobase per million mapped reads (RPKM) using RefSeq gene models aggregated by gene symbol. For differential expression analyses, raw counts over RefSeq exons were used, and then were compared across samples using DESeq[62].

CSC1=N[C@@](C)(c2ccccc2)C(=O)N1Nc1ccccc1 [fenamidone]
MeanFenamidone Nefl (gene Nefl, DESeq mean, 4 reps): 284.238 | log2FoldChange Nefl (gene Nefl, vs vehicle, 4 reps): -1.45 | MeanFenamidone (gene Neurl1a): 95.3821 | log2FoldChange (gene Neurl1a): -1.321 | MeanFenamidone Notch1 (gene Notch1, DESeq mean, 4 reps): 316.63 | log2FoldChange Notch1 (gene Notch1, vs vehicle, 4 reps): 1.887 | MeanFenamidone Notch3 (gene Notch3, DESeq mean, 4 reps): 258.391 | log2FoldChange Notch3 (gene Notch3, vs vehicle, 4 reps): 2.018 | MeanFenamidone Npnt (gene Npnt, DESeq mean, 4 reps): 335.437 | log2FoldChange Npnt (gene Npnt, vs vehicle, 4 reps): 1.337 | MeanFenamidone (gene Npr2): 171.686 | log2FoldChange (gene Npr2): 1.617 | MeanFenamidone (gene Nrep): 2228.26 | log2FoldChange (gene Nrep): -1.081 | MeanFenamidone (gene Nrg1): 57.9878 | log2FoldChange (gene Nrg1): 2.155 | MeanFenamidone (gene Nrxn3): 100.585 | log2FoldChange (gene Nrxn3): -1.713 | MeanFenamidone (gene Nsmf): 509.681 | log2FoldChange (gene Nsmf): -1.17 | MeanFenamidone Nuak2 (gene Nuak2, DESeq mean, 4 reps): 199.356 | log2FoldChange Nuak2 (gene Nuak2, vs vehicle, 4 reps): 1.954 | MeanFenamidone (gene Nup93): 78.3583 | log2FoldChange (gene Nup93): 1.518 | MeanFenamidone Nxph1 (gene Nxph1, DESeq mean, 4 reps): 23.0758 | log2FoldChange Nxph1 (gene Nxph1, vs vehicle, 4 reps): -2.821 | MeanFenamidone Nxph2 (gene Nxph2, DESeq mean, 4 reps): 12.3649 | log2FoldChange Nxph2 (gene Nxph2, vs vehicle, 4 reps): -2.898 | MeanFenamidone P2ry2 (gene P2ry2, DESeq mean, 4 reps): 92.6995 | log2FoldChange P2ry2 (gene P2ry2, vs vehicle, 4 reps): 2.7714 | MeanFenamidone (gene Parp3): 104.686 | log2FoldChange (gene Parp3): 1.933 | MeanFenamidone (gene Pcdh9): 219.607 | log2FoldChange (gene Pcdh9): -1.474 | MeanFenamidone (gene Pcdh17): 217.631 | log2FoldChange (gene Pcdh17): -1.1203 | MeanFenamidone Pcdh19 (gene Pcdh19, DESeq mean, 4 reps): 219.013 | log2FoldChange Pcdh19 (gene Pcdh19, vs vehicle, 4 reps): -1.519 | MeanFenamidone (gene Pcdhb9): 20.2277 | log2FoldChange (gene Pcdhb9): -1.874 | MeanFenamidone Pcyt1b (gene Pcyt1b, DESeq mean, 4 reps): 228.459 | log2FoldChange Pcyt1b (gene Pcyt1b, vs vehicle, 4 reps): -1.515 | MeanFenamidone Pdlim5 (gene Pdlim5, DESeq mean, 4 reps): 799.854 | log2FoldChange Pdlim5 (gene Pdlim5, vs vehicle, 4 reps): 2.0349 | MeanFenamidone Pgm2l1 (gene Pgm2l1, DESeq mean, 4 reps): 972.539 | log2FoldChange Pgm2l1 (gene Pgm2l1, vs vehicle, 4 reps): -1.841 | MeanFenamidone Phlda3 (gene Phlda3, DESeq mean, 4 reps): 537.092 | log2FoldChange Phlda3 (gene Phlda3, vs vehicle, 4 reps): 1.998 | MeanFenamidone Phldb2 (gene Phldb2, DESeq mean, 4 reps): 121.953 | log2FoldChange Phldb2 (gene Phldb2, vs vehicle, 4 reps): 2.252 | MeanFenamidone (gene Phyh): 85.5792 | log2FoldChange (gene Phyh): 1.618 | MeanFenamidone Piezo1 (gene Piezo1, DESeq mean, 4 reps): 449.998 | log2FoldChange Piezo1 (gene Piezo1, vs vehicle, 4 reps): 2.353 | MeanFenamidone Plcb3 (gene Plcb3, DESeq mean, 4 reps): 85.3651 | log2FoldChange Plcb3 (gene Plcb3, vs vehicle, 4 reps): 2.324 | MeanFenamidone (gene Plec): 505.373 | log2FoldChange (gene Plec): 1.462 | MeanFenamidone Plekha7 (gene Plekha7, DESeq mean, 4 reps): 128.547 | log2FoldChange Plekha7 (gene Plekha7, vs vehicle, 4 reps): 1.951 | MeanFenamidone Plekhg2 (gene Plekhg2, DESeq mean, 4 reps): 436.894 | log2FoldChange Plekhg2 (gene Plekhg2, vs vehicle, 4 reps): 2.353 | MeanFenamidone Plxnb2 (gene Plxnb2, DESeq mean, 4 reps): 1959.53 | log2FoldChange Plxnb2 (gene Plxnb2, vs vehicle, 4 reps): 1.762 | MeanFenamidone (gene Pnma2): 202.102 | log2FoldChange (gene Pnma2): -1.217 | MeanFenamidone (gene Ppard): 113.665 | log2FoldChange (gene Ppard): 1.493 | MeanFenamidone Ppm1e (gene Ppm1e, DESeq mean, 4 reps): 435.513 | log2FoldChange Ppm1e (gene Ppm1e, vs vehicle, 4 reps): -1.5474 | MeanFenamidone Pqlc3 (gene Pqlc3, DESeq mean, 4 reps): 109.637 | log2FoldChange Pqlc3 (gene Pqlc3, vs vehicle, 4 reps): 2.1113 | MeanFenamidone Prkcg (gene Prkcg, DESeq mean, 4 reps): 26.526 | log2FoldChange Prkcg (gene Prkcg, vs vehicle, 4 reps): -1.929 | MeanFenamidone (gene Prkcz): 141.39 | log2FoldChange (gene Prkcz): -1.24 | MeanFenamidone (gene Prrt2): 169.168 | log2FoldChange (gene Prrt2): -1.281 | MeanFenamidone (gene Prss23): 845.081
